Columns and labels:
[1] = Solubility of paclitaxel in organic solvents
[2] = Recovery of paclitaxel added to polymer mixtures after heating (reverse phase HPLC, UV detection); assay type: physicochemical
Description: The desirability of removing unreacted starting materials and/or acidic reaction by-products can be seen by reference to the data in Table 1. […] According to the data, when paclitaxel is combined with a diblock copolymer having up to 2% residual monomer and up to 0.2 μmol/mg acid content (expressed as the number of protons titrated in a solution prepared by dissolving 1 mg of diblock copolymer in water), after heating, only 95% of the paclitaxel initially added to the mixture could be recovered, as quantified using a reverse phase HPLC assay with UV detection and a taxane optimized C18 column.

In the case of CC(=O)O[C@H]1C(=O)[C@@]2(C)[C@H]([C@H](OC(=O)c3ccccc3)[C@]3(O)C[C@H](OC(=O)[C@H](O)[C@@H](NC(=O)c4ccccc4)c4ccccc4)C(C)=C1C3(C)C)[C@]1(OC(C)=O)CO[C@@H]1C[C@@H]2O [paclitaxel], the “amount of paclitaxel that may be dissolved in NMP” value ([1]; in 1 mL of NMP) is reported as 535 mg, the “amount of paclitaxel that may be dissolved in ethanol” value ([1]; in ethanol (volume not given)) is reported as 26 mg and the “paclitaxel initially added that could be recovered after heating” value ([2]; combined with diblock copolymer having up to 2% residual monomer and up to 0.2 μmol/mg acid content) is reported as 95%. The “paclitaxel recovered after heating” value ([2]; combined with methoxypolyethylene glycol having no measured acidic components and no DL-lactide monomer) was 99% and the “paclitaxel that could be recovered after heating” value ([2]; diblock copolymer with greatly reduced quantities of residual monomer and acidic components) was 98%.
